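Grown in 96-well plates, cells were treated for 48 hours with each compound at five concentrations. Insufficient inhibition: endpoint recorded as highest concentration tested. At the GI50, growth is halved. The concentration for full growth arrest is given as TGI.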
How the values were obtained:
Assay in all cases: NCI tumour cell line growth inhibition, 48 h
IGROV1 ovarian = system: IGROV1 ovarian
NCI/ADR-RES ovarian = system: NCI/ADR-RES ovarian
NCI-H460 lung = system: NCI-H460 lung
NCI-H23 lung = system: NCI-H23 lung
M14 melanoma = system: M14 melanoma
OVCAR-8 ovarian = system: OVCAR-8 ovarian
U251 CNS = system: U251 CNS
OVCAR-5 ovarian = system: OVCAR-5 ovarian
OVCAR-4 ovarian = system: OVCAR-4 ovarian
HCC-2998 colon = system: HCC-2998 colon
SF-268 CNS = system: SF-268 CNS
SK-MEL-2 melanoma = system: SK-MEL-2 melanoma
A549 NSCLC = system: A549 NSCLC
A498 renal = system: A498 renal
MDA-MB-435 = system: MDA-MB-435
MCF7 breast = system: MCF7 breast
HCT-15 colon = system: HCT-15 colon
SK-MEL-5 melanoma = system: SK-MEL-5 melanoma
HCT-116 colon = system: HCT-116 colon
KM12 colon = system: KM12 colon
SF-539 CNS = system: SF-539 CNS
COLO 205 colon = system: COLO 205 colon
HOP-92 NSCLC = system: HOP-92 NSCLC
CCRF-CEM leukemia = system: CCRF-CEM leukemia
SNB-19 CNS = system: SNB-19 CNS
EKVX NSCLC = system: EKVX NSCLC
HT29 colon = system: HT29 colon
BT-549 breast = system: BT-549 breast
MDA-MB-231 breast = system: MDA-MB-231 breast
UO-31 renal = system: UO-31 renal
SK-OV-3 ovarian = system: SK-OV-3 ovarian
CAKI-1 renal = system: CAKI-1 renal
NCI-H522 lung = system: NCI-H522 lung
SN12C renal = system: SN12C renal
OVCAR-3 ovarian = system: OVCAR-3 ovarian
MALME-3M melanoma = system: MALME-3M melanoma
ACHN renal = system: ACHN renal
786-0 renal = system: 786-0 renal
DU-145 prostate = system: DU-145 prostate
RXF 393 renal = system: RXF 393 renal
PC-3 prostate = system: PC-3 prostate
SW-620 colon = system: SW-620 colon
UACC-257 melanoma = system: UACC-257 melanoma
SR leukemia = system: SR leukemia
HOP-62 NSCLC = system: HOP-62 NSCLC
HL-60(TB) leukemia = system: HL-60(TB) leukemia
RPMI-8226 leukemia = system: RPMI-8226 leukemia
K-562 leukemia = system: K-562 leukemia
HS 578T breast = system: HS 578T breast
LOX IMVI melanoma = system: LOX IMVI melanoma
NCI-H226 lung = system: NCI-H226 lung
TK-10 renal = system: TK-10 renal
T-47D breast = system: T-47D breast
MOLT-4 leukemia = system: MOLT-4 leukemia
UACC-62 melanoma = system: UACC-62 melanoma
SNB-75 CNS = system: SNB-75 CNS
SF-295 CNS = system: SF-295 CNS

COc1cc(-c2nccn2-c2ccc3ccccc3c2)cc(OC)c1OC
GI50 (IGROV1 ovarian): 1.11 µM
TGI (IGROV1 ovarian): > 41.2 µM
TGI (NCI/ADR-RES ovarian): 0.0273 µM
GI50 (NCI-H460 lung): < 0.0215 µM
TGI (NCI-H460 lung): 11.7 µM
GI50 (NCI-H23 lung): 0.0789 µM
TGI (NCI-H23 lung): 5.53 µM
GI50 (M14 melanoma): 0.0613 µM
TGI (M14 melanoma): 12.7 µM
GI50 (OVCAR-8 ovarian): 0.489 µM
TGI (OVCAR-8 ovarian): > 88 µM
GI50 (U251 CNS): 0.0547 µM
TGI (U251 CNS): 16.7 µM
GI50 (OVCAR-5 ovarian): 0.469 µM
TGI (OVCAR-5 ovarian): 24.2 µM
GI50 (OVCAR-4 ovarian): 2.04 µM
TGI (OVCAR-4 ovarian): 44.6 µM
GI50 (HCC-2998 colon): < 0.0367 µM
TGI (HCC-2998 colon): 1.66 µM
GI50 (SF-268 CNS): 0.335 µM
TGI (SF-268 CNS): 18.9 µM
GI50 (SK-MEL-2 melanoma): 6.2 µM
TGI (SK-MEL-2 melanoma): > 50.3 µM
GI50 (A549 NSCLC): 0.74 µM
TGI (A549 NSCLC): > 65.5 µM
GI50 (A498 renal): 0.0778 µM
TGI (A498 renal): 1.36 µM
TGI (MDA-MB-435): 0.0511 µM
GI50 (MCF7 breast): < 0.013 µM
TGI (MCF7 breast): 15.8 µM
GI50 (HCT-15 colon): < 0.0226 µM
TGI (HCT-15 colon): 12.6 µM
GI50 (SK-MEL-5 melanoma): < 0.0195 µM
TGI (SK-MEL-5 melanoma): 4.45 µM
GI50 (HCT-116 colon): 0.04 µM
TGI (HCT-116 colon): 11.7 µM
GI50 (KM12 colon): < 0.0166 µM
TGI (KM12 colon): 18.2 µM
GI50 (SF-539 CNS): 0.0466 µM
TGI (SF-539 CNS): 0.625 µM
GI50 (COLO 205 colon): 0.0402 µM
TGI (COLO 205 colon): 2.44 µM
GI50 (HOP-92 NSCLC): 10.1 µM
TGI (HOP-92 NSCLC): 31.4 µM
GI50 (CCRF-CEM leukemia): 0.048 µM
TGI (CCRF-CEM leukemia): 32.5 µM
GI50 (SNB-19 CNS): 0.0985 µM
TGI (SNB-19 CNS): 24.3 µM
GI50 (EKVX NSCLC): 0.379 µM
TGI (EKVX NSCLC): 48.1 µM
GI50 (HT29 colon): < 0.0196 µM
TGI (HT29 colon): 14 µM
GI50 (BT-549 breast): 0.0995 µM
TGI (BT-549 breast): 15.6 µM
GI50 (MDA-MB-231 breast): 0.333 µM
TGI (MDA-MB-231 breast): 22.6 µM
GI50 (UO-31 renal): 1.65 µM
TGI (UO-31 renal): > 62.6 µM
GI50 (SK-OV-3 ovarian): 0.99 µM
TGI (SK-OV-3 ovarian): 74 µM
GI50 (CAKI-1 renal): < 0.0268 µM
TGI (CAKI-1 renal): 47 µM
GI50 (NCI-H522 lung): < 0.0218 µM
TGI (NCI-H522 lung): 20.4 µM
GI50 (SN12C renal): 0.666 µM
TGI (SN12C renal): 22.6 µM
GI50 (OVCAR-3 ovarian): < 0.0176 µM
TGI (OVCAR-3 ovarian): 1.61 µM
GI50 (MALME-3M melanoma): 16 µM
TGI (MALME-3M melanoma): 47.6 µM
GI50 (ACHN renal): 2.59 µM
TGI (ACHN renal): 49.6 µM
GI50 (786-0 renal): 0.0564 µM
TGI (786-0 renal): 12.5 µM
GI50 (DU-145 prostate): 0.0844 µM
TGI (DU-145 prostate): > 32.3 µM
GI50 (RXF 393 renal): 0.254 µM
TGI (RXF 393 renal): 28.7 µM
GI50 (PC-3 prostate): 0.0453 µM
TGI (PC-3 prostate): > 100 µM
GI50 (SW-620 colon): 0.024 µM
TGI (SW-620 colon): 25.2 µM
GI50 (UACC-257 melanoma): 12.9 µM
TGI (UACC-257 melanoma): 41.3 µM
GI50 (SR leukemia): < 0.0147 µM
TGI (SR leukemia): 7.06 µM
GI50 (HOP-62 NSCLC): 0.0675 µM
TGI (HOP-62 NSCLC): 18.3 µM
GI50 (HL-60(TB) leukemia): < 0.0176 µM
TGI (HL-60(TB) leukemia): 1.33 µM
GI50 (RPMI-8226 leukemia): 0.19 µM
TGI (RPMI-8226 leukemia): 17.5 µM
GI50 (K-562 leukemia): < 0.0156 µM
TGI (K-562 leukemia): > 32.3 µM
GI50 (HS 578T breast): 0.0668 µM
TGI (HS 578T breast): 71.5 µM
GI50 (LOX IMVI melanoma): 1.53 µM
TGI (LOX IMVI melanoma): 19 µM
GI50 (NCI-H226 lung): 0.206 µM
TGI (NCI-H226 lung): 20.3 µM
GI50 (TK-10 renal): 2.94 µM
TGI (TK-10 renal): > 87.6 µM
GI50 (T-47D breast): 17.7 µM
TGI (T-47D breast): 94.8 µM
GI50 (MOLT-4 leukemia): 0.0708 µM
TGI (MOLT-4 leukemia): 17 µM
GI50 (UACC-62 melanoma): < 0.0177 µM
TGI (UACC-62 melanoma): 14.5 µM
GI50 (SNB-75 CNS): 0.0605 µM
TGI (SNB-75 CNS): 24.8 µM
GI50 (SF-295 CNS): < 0.0159 µM
TGI (SF-295 CNS): 15.5 µM

From PubChem BioAssay (NCI)
